Laboratory results from the supplement of paper PMC3937590.

Key:
Test in all cases: -log10 GI50 (growth inhibition 50%) (-log10(M)); higher = more potent growth inhibition
[1] = test system: ZR751
Procedure, shortened: (§1)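 Dose-response data came from breast cancer cell lines exposed to each compound for 72 hours at nine doses in 1:5 serial dilution, in triplicate, and read by luminescence relative to a time-zero plate. A Gompertz curve fitted by nonlinear least squares gave GI50, the molar concentration for the set level of growth inhibition, reported as its negative logarithm to base 10. Where a value equals the top dose, it carries a < qualifier.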

[2] = test system: HCC38
Procedure, shortened: as §1

[3] = test system: HCC70
Procedure, shortened: as §1

[4] = test system: SKBR3
Procedure, shortened: as §1

[5] = test system: UACC812
Procedure, shortened: as §1

[6] = test system: MDAMB231
Procedure, shortened: as §1

[7] = test system: HCC1419
Procedure, shortened: as §1

[8] = test system: 184A1
Procedure, shortened: as §1

[9] = test system: MCF12A
Procedure, shortened: as §1

[10] = test system: SUM52PE
Procedure, shortened: as §1

[11] = test system: AU565
Procedure, shortened: as §1

[12] = test system: SUM229PE
Procedure, shortened: as §1

[13] = test system: MDAMB453
Procedure, shortened: as §1

[14] = test system: SUM159PT
Procedure, shortened: as §1

[15] = test system: MDAMB157
Procedure, shortened: as §1

[16] = test system: CAMA1
Procedure, shortened: as §1

[17] = test system: SUM185PE
Procedure, shortened: as §1

[18] = test system: 184B5
Procedure, shortened: as §1

[19] = test system: BT20
Procedure, shortened: as §1

[20] = test system: T47D_KBluc
Procedure, shortened: as §1

| SMILES | -log10 GI50 [1] | -log10 GI50 [2] | -log10 GI50 [3] | -log10 GI50 [4] | -log10 GI50 [5] | -log10 GI50 [6] | -log10 GI50 [7] | -log10 GI50 [8] | -log10 GI50 [9] | -log10 GI50 [10] | -log10 GI50 [11] | -log10 GI50 [12] | -log10 GI50 [13] | -log10 GI50 [14] | -log10 GI50 [15] | -log10 GI50 [16] | -log10 GI50 [17] | -log10 GI50 [18] | -log10 GI50 [19] | -log10 GI50 [20] |
| --- | --- | --- | --- | --- | --- | --- | --- | --- | --- | --- | --- | --- | --- | --- | --- | --- | --- | --- | --- | --- |
| CC(=O)Nc1cccc(-n2c(=O)n(C3CC3)c(=O)c3c(Nc4ccc(I)cc4F)n(C)c(=O)c(C)c32)c1 | < 4.78 | < 4.78 | 8.18 | < 4.78 | < 4.78 | 6.86 | 7.23 | 8.67 | 8.68 | 6.92 | 5.01 | 8.17 | 6.64 | 7.93 | 6.57 | < 4.78 | 4.9 |  |  |  |
| CC(C)Oc1ccc(C(=O)N[C@H](CNC(=O)CN(C)C)Cc2ccc(-c3cn4cccc([C@H](C)O)c4n3)cc2)cc1Cl | 7.09 | 7.32 | 7.68 | 7.34 | 7.94 | 5.91 | 5.72 | 5.1 | 6.1 | 7.65 | 7.62 | 7.42 |  | 7.43 | 7.48 | 7.33 | 5.43 | 5.17 |  |  |
| CCNCCCNC/C=C\CNCCCNCC | 3.29 | 5.26 | 5.9 | 3.51 | 3.47 | 4.75 | 4.85 | 3.2 | < 4 | 5.45 | 3.33 | 4.33 | 4.26 | 4.03 | 2.96 | 2.91 | < 3.3 | 3.13 |  |  |
| CCn1cc(-c2ccnc3[nH]c(-c4cccc(CN(C)C)c4)cc23)c(-c2ccc(NC(=O)N(C)C)cc2)n1 | 5.08 | 6.53 | 6.58 | 5.29 | 5.07 | 5.47 | 5.18 | 6.1 | 5.22 | 6.86 | 5.52 | 6.33 | 5.54 | 5.77 | 6.23 | 5.05 | 5.95 | 6.19 |  |  |
| C[C@@H](Oc1cc(-n2cnc3ccc(CN4CCN(C)CC4)cc32)sc1C(N)=O)c1ccccc1C(F)(F)F | 5.16 |  | 7.78 | 6.92 | 4.99 | 7.75 | 5.13 | 5.18 | 6.14 | 8.2 | 8.58 | 7.68 | 8.02 | 7.49 | 8.02 | 5.17 | 5.71 | 6.69 |  |  |
| O=C1NC(=O)/C(=C/c2ccc3nccc(-c4ccncc4)c3c2)S1 | 5.99 | 6.11 | 6.75 | 6.82 | 6.62 | 5.21 | 6.59 | 7.78 | 6.38 | 6.82 | 6.32 | 6.26 | 6.52 | 6.72 | 6.17 | 5.77 | 7.13 |  |  |  |
| Oc1cc(-c2nc(-c3ccccc3)[nH]c2-c2ccncc2)ccc1Cl | 4.59 | 4.77 | 4.49 | 4.66 | 4.9 | 4.87 | 4.79 | 5.06 | 4.97 | 5.13 | < 4.48 | 4.52 | < 4.48 | 4.78 | 4.88 | 4.4 | 5.19 | 5.45 | 4.62 |  |
| C=CCNC1=C2C[C@@H](C)C[C@H](OC)[C@H](O)[C@@H](C)/C=C(\C)[C@H](OC(N)=O)[C@@H](OC)/C=C\C=C(/C)C(=O)NC(=CC1=O)C2=O [17-AAG] | 6.83 | 7.24 | 6.62 | 7.55 | 7.96 | 6.11 | 7.41 | 7.93 | 7.48 | 7.79 | 7.24 | 7.56 | 7.36 | 7.46 |  | 6.6 | 7.47 | 7.56 |  |  |
| COc1cc2ncnc(Nc3cccc(Cl)c3)c2cc1OC [AG1478] | < 3.78 | 3.9 | 4.21 | 5.4 |  | < 3.78 | 5.92 |  | 7.16 | < 3.78 | 4.79 | < 3.78 | < 3.78 | 4.76 | 4.48 | 4.46 | < 3.78 |  |  |  |
| CCc1c2c(nc3ccc(OC(=O)N4CCC(N5CCCCC5)CC4)cc13)-c1cc3c(c(=O)n1C2)COC(=O)[C@]3(O)CC [CPT-11] | 5.44 | 6.14 | 4.97 | 5.49 | 5.49 | 5.06 | 4.62 | 5.44 | 5.79 | 5.87 | 5.83 | 5.16 | 5.19 | 5.37 | 5.43 | 4.84 | 4.99 | 5.66 |  |  |
| O=C(O)C1(C(=O)O)CCC1.[NH2-].[NH2-].[Pt+2] [Carboplatin] | 4.1 | 4.76 | 4.82 | 5 | 4.76 | 4.09 | 4.02 | 4.9 | 4.05 | 4.71 | 4.95 | 4.27 | 4.27 | 4.55 | 4.07 | 3.72 | 3.94 | 5.29 |  |  |
| N.N.[Cl][Pt][Cl] [Cisplatin] | 4.99 | 5.78 | 5.8 | 4.77 | 5.48 | 4.65 | 4.91 | 5.53 | 4.18 | 5.78 | 5.72 | 5.26 | 5.16 | 5.4 | 4.62 | 4.39 | 4.03 | < 3.3 |  |  |
| CC(=O)O[C@@]12CO[C@@H]1C[C@H](O)[C@@]1(C)C(=O)[C@H](O)C3=C(C)[C@@H](OC(=O)[C@H](O)[C@@H](NC(=O)OC(C)(C)C)c4ccccc4)C[C@@](O)([C@@H](OC(=O)c4ccccc4)[C@H]21)C3(C)C [Docetaxel] | 7.74 | 8.69 | 8.49 | 8 | 8.39 | 8.66 | 7.8 | 6.13 | 8.59 | 8.67 | 8.3 | 7.94 | 8.32 | 8.77 | 8.76 |  | 6.4 | 8.39 |  | 7.93 |
| COc1cccc2c1C(=O)c1c(O)c3c(c(O)c1C2=O)C[C@@](O)(C(=O)CO)C[C@@H]3O[C@H]1C[C@H](N)[C@H](O)[C@H](C)O1 [Doxorubicin] | 6.87 | 7.14 | 5.36 | 6.9 | 7.12 | 6.44 | 6.33 | 6.95 | 7.34 | 7.01 | 7.03 | 6.72 | 6.67 | 6.77 | 6.49 | 6.58 | 6.51 |  |  |  |
| O=c1[nH]cc(F)c(=O)[nH]1 [Fluorouracil] | 4.52 | 3.72 | 3.99 | 4.48 | 4.34 | 3.75 | 3.77 | 3.88 | 4.82 | 4.65 | 4.69 | 4.08 | 4.02 | 4.68 | 3.11 | 3.51 | 2.53 | < 1.72 |  |  |
| COc1cc2ncnc(Nc3ccc(F)c(Cl)c3)c2cc1OCCCN1CCOCC1 [Gefitinib] | < 4.48 | 4.75 | 5.05 | 5.56 | 6.04 | < 4.48 | 5.5 | < 4.48 | 6.17 | 5.1 | 5.97 | 5.21 | 5.13 | 5.07 | 4.92 |  | 5.11 | 7.43 |  |  |
| COC1=C2C[C@@H](C)C[C@H](OC)[C@H](O)[C@@H](C)/C=C(\C)[C@H](OC(N)=O)[C@@H](OC)/C=C\C=C(/C)C(=O)NC(=CC1=O)C2=O [Geldanamycin] | 7.06 | 7.56 | 7.09 | 7.79 | 7.97 | 7.65 | 7.49 | 8.41 | 7.73 | 7.93 | 7.35 | 7.91 | 7.69 | 8.21 | 7.71 | 7.47 | 7.71 | 8.01 |  |  |
| Nc1ccn([C@@H]2O[C@H](CO)[C@@H](O)C2(F)F)c(=O)n1 [Gemcitabine] | 7.45 | 8.17 | 4.58 | 7.97 | 7.75 | 5.93 | 4.81 | 6.16 | 7.17 |  | 7.81 | 7.3 |  | 7.99 |  | 6.79 | 6.44 | 6.14 |  |  |
| NS(=O)(=O)c1ccc(Nc2nc(OCC3CCCCC3)c3[nH]cnc3n2)cc1 [NU6102] | 4.82 | 5.03 | 4.71 | 4.51 | 4.42 |  | 4.54 | 5.22 | 4.8 | 5.27 | 4.64 | 5.1 | 4.91 | 4.9 | 4.26 | 4.79 | 5.02 | 5.39 |  | 4.43 |
| CC[C@H](CO)Nc1nc(NCc2ccccc2O)c2ncn(C(C)C)c2n1 [Olomoucine II] | 5.21 | 5.53 | 5.47 | 4.96 | 5.19 | 5.17 | 5.36 | 5.5 | 5.22 | 5.19 | 5.33 | 5.13 | 5.31 | 5.32 | 5.23 | 5.3 | 5.98 | 5.53 | 5.43 |  |
| O=C(O)C(=O)O.[NH-][C@@H]1CCCC[C@H]1[NH-].[Pt+2] [Oxaliplatin] | 5.61 |  | 5.38 | 5.7 | 5.85 | 4.9 |  | 5.89 | 5.75 | 5.46 |  | 5.72 | 5.19 | 5.6 | 4.8 |  | 4.39 | 5.57 |  |  |
| CC(=O)O[C@H]1C(=O)[C@@]2(C)[C@H]([C@H](OC(=O)c3ccccc3)[C@]3(O)C[C@H](OC(=O)[C@H](O)[C@@H](NC(=O)c4ccccc4)c4ccccc4)C(C)=C1C3(C)C)[C@]1(OC(C)=O)CO[C@@H]1C[C@@H]2O [Paclitaxel] | 7.76 | 8.13 | 8.03 | 7.94 | 8.08 | 8.37 | 7.04 | 7.35 | 7.97 | 8.2 | 8.14 | 7.72 | 7.99 | 8.24 | 8.27 | 7.95 | 6.64 | 7.74 |  | 7.84 |
| CC/C(=C(\c1ccccc1)c1ccc(OCCN(C)C)cc1)c1ccccc1 [Tamoxifen] | < 3.78 | 4.28 | < 3.78 | 4.37 |  | < 3.78 | < 3.78 | < 3.78 | 4.89 | 4.28 | 4.05 | 5.62 | 4.47 | 3.93 | 4.09 | 4.46 | 5.05 |  |  |  |
| CC[C@@]1(O)C(=O)OCc2c1cc1n(c2=O)Cc2cc3c(CN(C)C)c(O)ccc3nc2-1 [Topotecan] | 7.16 | 8.61 | 6.3 | 7.95 | 7.3 | 5.67 | 6.45 | 6.88 | 7.58 | 8.08 | 7.73 | 7.2 | 7.07 | 6.65 | 6.4 | 6.4 | 7.2 | 7.16 |  |  |
